Reference: patent publication US11753397B2, “Cereblon binders for the degradation of ikaros” (C4 Therapeutics, Inc., priority 2018, dated 2023)

System: NCIH929.1 cells
Assay: Cell viability assay (CellTiter-Glo 2.0, ATP quantification)
Format: cell-based
Settings: NCIH929.1 cell viability, CellTiter-Glo 2.0, 96 hr incubation, top concentration 1 μM
Summary of the method: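 Cells seeded at 750/well in RPMI with 10% FBS and 0.05 mM 2-mercaptoethanol, exposed 96 h at 37 °C to 10-point half-log dilutions in duplicate, top 1 μM. Viability by CellTiter-Glo 2.0 ATP luminescence, with a day-0 read as cytostatic baseline (CT0).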

## CC(C)(C)OC(=O)N1CCC(n2cc(C(Nc3cccc4c3C(=O)N(C3CCC(=O)NC3=O)C4=O)c3cn(C4CCN(C(=O)OC(C)(C)C)CC4)nn3)nn2)CC1 (stereo not shown) [Compound 203, tert-Butyl 4-[4-[[1-(1-tert-butoxycarbonyl-4-piperidyl)triazol-4-yl]-[[2-(2,6-dioxo-3-piperidyl)-1,3-dioxo-isoindolin-4-yl]amino]methyl]triazol-1-yl]piperidine-1-carboxylate]
  GI50: > 0.1 µM

## O=C1CCC(N2C(=O)c3cccc(NCc4cnn(C5CCN(CC6(C#CC7CC7)CCC6)CC5)c4)c3C2=O)C(=O)N1 (stereo not shown) [Compound 204, 4-({1-[1-(1-Cyclopropylethynyl-cyclobutylmethyl)-piperidin-4-yl]-1H-pyrazol-4-ylme-thyl}-amino)-2-(2,6-dioxo-piperidin-3-yl)-isoindole-1,3-dione]
  GI50: < 0.1 µM

## O=C1CCC(N2C(=O)c3cccc(NCc4cnn(C5CCN(C(=O)C6(C#CC7CC7)CCC6)CC5)c4)c3C2=O)C(=O)N1 (stereo not shown) [Compound 205, 4-({1-[1-(1-Cyclopropylethynyl-cyclobutanecarbonyl)-piperidin-4-yl]-1H-pyrazol-4-yl-methyl}-amino)-2-(2,6-dioxo-piperidin-3-yl)-isoindole-1,3-dione]
  GI50: < 0.1 µM

## CC1(C(=O)N2CCC(n3ncc4c3CCC4Nc3cccc4c3C(=O)N(C3CCC(=O)NC3=O)C4=O)CC2)CCC1 (stereo not shown) [Compound 207, 2-(2,6-Dioxo-piperidin-3-yl)-4-{1-[1-(1-methyl-cyclobutanecarbonyl)-piperidin-4-yl]-1,4,5,6-tetrahydro-cyclopentapyrazol-4-ylamino}-isoindole-1,3-dione]
  GI50: < 0.1 µM
